Test results: PubChem BioAssay AID2060625 (Molecular Pharmacology Branch, DTP, NCI, 2025)

Test system: 186277-243-T-J2-PDC spheroids with HUVEC/MSC, viability
Test: Anticancer human tumor 186277-243-T-J2-PDC patient-derived colon adenocarcinoma cell line growth inhibition [CLK]
Conditions: for IC50: curve of first compound; for viability, T/C: stronger effect = lower value
Excerpt: A high-throughput screen of multi-cell type tumor spheroids was designed to identify active combinations of […] and targeted small molecules. Complex spheroids include a stromal component modeled by human endothelial cells (HUVEC) and fibroblasts modeled by human mesenchymal stem cells (MSCs). The concentration ranges selected for each drug and investigational agent were based upon clinically achievable concentrations if the clinical Cmax of the agent was known.
Compounds. The drugs and investigational agents: cirtuvivint (SM08502; NSC835563), CC-671 (NSC850746), vemurafenib (NSC761431), tapotoclax (NSC804041), sotorasib (NSC818433), adagrasib (NSC831453), MRTX-1133 (NSC836407), BAY2416964 (NSC825713), copanlisib (NSC816437), inavolisib (NSC800729), abemaciclib (NSC768073), osimertinib (NSC779217), entinostat (NSC756642), eltanexor (KPT-8602, NSC794443), venetoclax (NSC766270), ceralasertib (NSC777638), bortezomib (NSC756655), olaparib (NSC753686), talazoparib (NSC767125), alisertib (NSC759677), peposertib (NSC802822), gemcitabine (NSC613327), 5-fluorouracil (NSC19893), SN-38 (NSC673596), oxaliplatin (NSC266046), paclitaxel (NSC125973), and doxorubicin (NSC123127), were obtained from the National Cancer Institute (NCI) Developmental Therapeutics Program Chemical Repository. The FDA-approved anticancer drug set is available from the Developmental Therapeutics Program at https://dtp.cancer.gov/organization/dscb/obtaining/available plates.htm. […] The stock solutions were prepared in dimethyl sulfoxide (DMSO, Sigma-Aldrich, St. Louis, MO, cat. D2650), except for the platinum complexes which were prepared in saline (Quality Biological, Gaithersburg, MD, cat. 114-055-101), at 800-fold the tested concentration and stored at -70 degrees C prior to their use. All drugs and investigational agents were tested over a range starting from a high concentration at or near the clinical Cmax and decreasing in half-log increments. If the clinical Cmax for an agent had not been determined, the highest concentration tested was 10 microM.
Cell Culture. All cells were maintained in an incubator at 37 degrees C and 5% CO2 with 95% humidity. The PDC lines were cultured according to standard operating procedures established by the NCI PDMR. Briefly, all PDCs were thawed and cultured in Matrigel-coated flasks prepared with a working solution of 1X Ham's F-12 nutrient mix, without supplementation (Invitrogen, Waltham, MA, cat. 11765054), 100 U/mL penicillin-streptomycin (Invitrogen, cat. 15140122), and 2.5% Matrigel (Corning Inc., Corning, NY, cat. 354248) for the first three passages. The 947758-054-R-J2-PDC line was cultured in 6B/Colon 1A media, which includes advanced DMEM/F-12 (Thermo Fisher Scientific, cat. 12634028), 10 mM HEPES (Thermo Fisher Scientific, cat. 15630080), 1X GlutaMAX supplement (Thermo Fisher Scientific, cat. 35050061), 0.1 mg/mL primocin (InvivoGen, cat. ant-pm-2), 10% defined fetal bovine serum, heat inactivated (HyClone Laboratories Inc., cat. SH30070.03HI), 1.25 mM N-Acetyl-L-cysteine (Sigma-Aldrich, cat. A9165), 10 mM nicotinamide (Sigma-Aldrich, cat. N0636), 1X B-27 supplement (Thermo Fisher Scientific, cat. 17504044), 1X N-2 supplement (Thermo Fisher Scientific, cat. 17502048), and 10 microM Y-27632 dihydrochloride (Tocris Bioscience, cat. 1254). The 876862-298-R-J1-PDC was cultured in 6E media, which includes all 6B/Colon 1A media components plus 50% L-WRN conditioned media (ATCC, cat. CRL-3276), 50 ng/mL recombinant human EGF recombinant protein (hEGF; Thermo Fisher Scientific, cat. PHG0311), 10 ng/mL recombinant human fibroblast growth factor 10 (hGFG-10; PeproTech, cat. 100-26), 1 ng/mL recombinant human fibroblast growth factor 2 (hFGF-2; PeproTech, cat. 100-18B), and 1 µM prostaglandin E2 (PGE2; Tocris, cat. 2296). The 227483-062-R1-J1-PDC line was cultured in Panc media, containing all 6E components except hFGF-2, with the addition of 500 nM SB-431542 (Selleckchem, cat. S1067) and 10 nM gastrin (Tocris, cat. 3006). […]
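Note: compound exposure lasted seven days before readout.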
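Throughout, for viability, T/C: 100% = DMSO vehicle control wells.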

Q: `CC1(C)CCC(CN2CCN(c3ccc(C(=O)NS(=O)(=O)c4ccc(NCC5CCOCC5)c([N+](=O)[O-])c4)c(Oc4cnc5[nH]ccc5c4)c3)CC2)=C(c2ccc(Cl)cc2)C1` + CNC(=O)c1ccc(Nc2nc(OC3CCCC3)c3c(-c4ccc5nc(C)oc5c4)c[nH]c3n2)c(OC)c1 was tested. Which IC50 (second compound 0.0316 µM) did it give?
A: Its IC50 is 6100 nM.

Q: What about the IC50 (second compound 0.1 µM) of the same compound?
A: Its IC50 is 4370 nM.

Q: And the IC50 (second compound 0.316 µM)?
A: Its IC50 is 1740 nM.

Q: What about the IC50 (second compound 1 µM) of the same compound?
A: Its IC50 is < 31.6 nM.

Q: And the IC50 (second compound 3.16 µM)?
A: The IC50 was < 31.6 nM.

Q: What about the IC50 (second compound 10 µM) of the same compound?
A: Its IC50 is < 31.6 nM.

Q: What about the viability, T/C (second compound 0.0316 µM, first compound 0.0316 µM) of the same compound?
A: Its viability, T/C is 110%.

Q: And the viability, T/C (second compound 0.0316 µM, first compound 0.1 µM)?
A: The viability, T/C was 109%.

Q: What about the viability, T/C (second compound 0.0316 µM, first compound 0.316 µM) of the same compound?
A: The viability, T/C was 102%.

Q: What about the viability, T/C (second compound 0.0316 µM, first compound 1 µM) of the same compound?
A: Its viability, T/C is 102%.

Q: And the viability, T/C (second compound 0.0316 µM, first compound 3.16 µM)?
A: The viability, T/C was 119%.

Q: What about the viability, T/C (second compound 0.0316 µM, first compound 10 µM) of the same compound?
A: Its viability, T/C is 6.08%.

Q: What about the viability, T/C (second compound 0.1 µM, first compound 0.0316 µM) of the same compound?
A: The viability, T/C was 81.6%.

Q: And the viability, T/C (second compound 0.1 µM, first compound 0.1 µM)?
A: Its viability, T/C is 82%.

Q: And the viability, T/C (second compound 0.1 µM, first compound 0.316 µM)?
A: The viability, T/C was 85.8%.

Q: What about the viability, T/C (second compound 0.1 µM, first compound 1 µM) of the same compound?
A: The viability, T/C was 80%.

Q: And the viability, T/C (second compound 0.1 µM, first compound 3.16 µM)?
A: The viability, T/C was 67.9%.

Q: What about the viability, T/C (second compound 0.1 µM, first compound 10 µM) of the same compound?
A: Its viability, T/C is 4.37%.

Q: What about the viability, T/C (second compound 0.316 µM, first compound 0.0316 µM) of the same compound?
A: Its viability, T/C is 53.1%.

Q: And the viability, T/C (second compound 0.316 µM, first compound 0.1 µM)?
A: The viability, T/C was 57.5%.

Q: What about the viability, T/C (second compound 0.316 µM, first compound 0.316 µM) of the same compound?
A: Its viability, T/C is 58.4%.

Q: And the viability, T/C (second compound 0.316 µM, first compound 1 µM)?
A: Its viability, T/C is 56.8%.

Q: And the viability, T/C (second compound 0.316 µM, first compound 3.16 µM)?
A: Its viability, T/C is 43.2%.

Q: What about the viability, T/C (second compound 0.316 µM, first compound 10 µM) of the same compound?
A: Its viability, T/C is 6.45%.

Q: What about the viability, T/C (second compound 1 µM, first compound 0.0316 µM) of the same compound?
A: The viability, T/C was 36.1%.

Q: And the viability, T/C (second compound 1 µM, first compound 0.1 µM)?
A: The viability, T/C was 35.2%.

Q: And the viability, T/C (second compound 1 µM, first compound 0.316 µM)?
A: Its viability, T/C is 37.5%.

Q: What about the viability, T/C (second compound 1 µM, first compound 1 µM) of the same compound?
A: The viability, T/C was 39.9%.

Q: And the viability, T/C (second compound 1 µM, first compound 3.16 µM)?
A: Its viability, T/C is 33.1%.

Q: And the viability, T/C (second compound 1 µM, first compound 10 µM)?
A: The viability, T/C was 4.39%.

Q: What about the viability, T/C (second compound 3.16 µM, first compound 0.0316 µM) of the same compound?
A: Its viability, T/C is 35.9%.

Q: And the viability, T/C (second compound 3.16 µM, first compound 0.1 µM)?
A: The viability, T/C was 34.6%.

Q: And the viability, T/C (second compound 3.16 µM, first compound 0.316 µM)?
A: The viability, T/C was 35.1%.

Q: And the viability, T/C (second compound 3.16 µM, first compound 1 µM)?
A: The viability, T/C was 37.6%.

Q: What about the viability, T/C (second compound 3.16 µM, first compound 3.16 µM) of the same compound?
A: Its viability, T/C is 32.1%.

Q: And the viability, T/C (second compound 3.16 µM, first compound 10 µM)?
A: The viability, T/C was 3.97%.

Q: And the viability, T/C (second compound 10 µM, first compound 0.0316 µM)?
A: Its viability, T/C is 34.7%.

Q: What about the viability, T/C (second compound 10 µM, first compound 0.1 µM) of the same compound?
A: The viability, T/C was 30.6%.

Q: And the viability, T/C (second compound 10 µM, first compound 0.316 µM)?
A: The viability, T/C was 40.3%.

Q: What about the viability, T/C (second compound 10 µM, first compound 1 µM) of the same compound?
A: The viability, T/C was 36%.

Q: And the viability, T/C (second compound 10 µM, first compound 3.16 µM)?
A: The viability, T/C was 35.9%.

Q: What about the viability, T/C (second compound 10 µM, first compound 10 µM) of the same compound?
A: Its viability, T/C is 6.13%.
